Measurements from patent US20140349941A1, “AROMATIC-CATIONIC PEPTIDES AND USES OF SAME” (Cornell University, priority 2011, published 2014).

Tests used:
cyt c = cyt c (Homo sapiens, UniProt P99999); experiment: Photoluminescence of cyt c (532.8 nm laser excitation); conditions: excitation 532.8 nm
From the text: A light source 140, such as a laser or light-emitting diode (LED), illuminates the doped cyt c layer 110 at an excitation wavelength, such as 532.8 nm. […] (As understood by those skilled in the art, the gap between the valence band and the excited state is […] to the excitation wavelength.) After a short relaxation time, the electron decays from the excited state to a conduction band. When the electron relaxes to valence band from the conduction band, the doped cyt c layer 110 emits a photon at a luminescence wavelength, such as 650 nm, fixed by the gap between the valence and conduction bands.
Thus, as the aromatic-cationic peptide or aromatic-cationic peptide/cardiolipin or cardiolipin concentration in the doped cyt c layer 110 varies due to changes in the pH and/or temperature of the test substrate 130, the intensity at the luminescence wavelength varies as well. Detecting this change in intensity with a photodetector 150 yields an indication of the pH and/or temperature of the test substrate 130.
Photoluminescence (PL) was carried out to examine the effects of SS-31 on the electronic structure of conduction band of the heme of cyt c, an energy state responsible for electronic transport (FIG. 3). A […] laser (532.8 nm) was used to excite electrons in cyt c (FIG. 2A). Strong PL emission in cyt c state can be clearly identified at 650 nm (FIG. 2B).

[1] = test system: isolated rat kidney mitochondria; experiment: O2 consumption of isolated rat kidney mitochondria (Oxygraph); type: biochemical
Description: (§1) Fresh mitochondria were isolated from rat kidney as described previously. Electron flux was measured by O2 consumption (Oxygraph Clark electrode) as previously described using different substrates for C1 (glutamate/malate), C2 (succinate), and C3 (TMPD/ascorbate). Assays were carried out under low substrate conditions in order to avoid saturating the enzyme reactions. ATP production in isolated mitochondria was determined kinetically using the luciferase method (Biotherma) in a 96-well luminescence plate reader (Molecular Devices). The initial maximal rate for ATP synthesis was determined over the first minute.
Oxygen consumption of isolated rat kidney mitochondria was determined using the Oxygraph (FIG. 5). Rates of respiration were measured in the presence of different concentrations of SS-31 in state 2 (400 μM ADP only), state 3 (400 μM ADP and 500 μM substrates) and state 4 (substrates only). All experiments were done in triplicate with n=4-7.
(§2) SS-20 or SS-31 was added at 100 μM concentrations to isolated mitochondria in respiration buffer containing 0.5 mM succinate (complex II substrate) and 400 μM ADP. Similar increases in O2 consumption were observed when low concentrations of complex I substrates (glutamate/malate) were used (data not shown).
SS-20 or SS-31 was added at 10 μM or 100 μM concentrations to isolated mitochondria in respiration buffer containing glutamate/malate (complex I substrate), 0.5 mM succinate (complex II substrate) or 3 μM TMPD/1 mM ascorbate (direct reductant of cyt C). 400 μM ADP was added to initiate State 3 respiration.

isolated mitochondria = experiment: ATP synthesis in isolated mitochondria; type: biochemical, rat
Description: as §1
The rate of mitochondrial ATP synthesis was determined by measuring ATP in respiration buffer collected from isolated mitochondria 1 min after addition of […] (FIG. 6). ATP was assayed by HPLC. All experiments were carried out in triplicate, with n=3.
as §2
Increase in electron flux in the electron transport chain can either result in increase in ATP synthesis or increase in electron leak and generation of free radicals. ATP synthesis in isolated mitochondria was assayed by HPLC.

[2] = target: heme environment of cytochrome c (with CL) (Homo sapiens, UniProt P99999); experiment: Soret CD spectrum of cyt C in the presence of CL; type: binding; conditions: cyt C 10 μM; CL 30 μg/ml; peptide 10 μM; 20 mM HEPES pH 7.5, 25° C.; FIG. 24
Description: Circular dichroism (CD) was carried out to examine the effects of the peptides on protecting the heme environment of cyt C from the acyl chain of CL. For heme proteins, the Soret CD spectrum is strictly correlated with the heme pocket conformation. In particular, the negative 416-420 nm Cotton effect is considered diagnostic of Fe(III)-Met80 coordination in native cyt C (Santucci and Ascoli, 1997). […] CD spectra were obtained using AVIV CD Spectrometer Model 410.
Changes in the Soret CD spectrum of cyt C (10 μM) were recorded in the absence (dotted line) and presence (dashed line) of 30 μg/ml CL, plus addition of different peptides (10 μM) (solid line) (FIG. 24). CD measurements were carried out using 20 mM HEPES, pH 7.5, at 25° C. and expressed as molar ellipticity (θ) (m Deg).

cytochrome c (with CL) = cytochrome c (with CL) (Homo sapiens, UniProt P99999); experiment: Cytochrome c reduction inhibited by CL; type: biochemical
Description: Cytochrome c is a carrier of electrons between respiratory complex III and IV in mitochondria. Cytochrome c is reduced (Fe^2+) after it accepts an electron from cytochrome c reductase, and it is then oxidized to Fe^3+ by cytochrome c oxidase.
Reduction of cytochrome c (20 μM) was induced by the addition of glutathione (500 μM) in the absence or presence of CL (100 μg/ml) (FIG. 25A). Reduction of cytochrome c was monitored by absorbance at 550 nm using a 96-well UV-VIS plate reader (Molecular Devices). Addition of CL decreased the rate of cytochrome c reduction by half.

cytochrome c-CL complex = cytochrome c-CL complex (Homo sapiens, UniProt P99999); experiment: Cytochrome c/CL peroxidase activity (amplex red); type: biochemical
From the text: The six coordination of the heme in cytochrome c prevents direct interaction of H2O2 with the catalytic metal site, and native cytochrome c in solution is a poor peroxidase. Upon interaction with CL, cytochrome c undergoes a structural change with rupture of the Fe-Met80 coordination. […] The mechanism of action of cytochrome c peroxidase is similar to that of other peroxidases, such as horse radish peroxidase (HRP). Thus it is possible to use the amplex red-HRP reaction to investigate cytochrome c peroxidase activity. In the presence of peroxidase, amplex red (AR) reacts with H2O2 to form the red-fluorescent oxidation product, resorufin (Ex/Em=571/585).
Cytochrome c (2 μM) was mixed with CL (25 μg/ml) and 10 μM H2O2 in 20 mM HEPES, pH 7.4. Amplex red (50 μM) was then added and fluorescence emission monitored in real time using Hitachi F4500 fluorescence spectrophotometer. Addition of amplex red elicited rapid increase in fluorescence signal due to resorufin formation, providing direct evidence for peroxidase activity of cytochrome c/CL complex (FIG. 29A).

Chain of cytochrome c-CL complex (P99999 2-105 limits assumed, species assumed, one chain of several): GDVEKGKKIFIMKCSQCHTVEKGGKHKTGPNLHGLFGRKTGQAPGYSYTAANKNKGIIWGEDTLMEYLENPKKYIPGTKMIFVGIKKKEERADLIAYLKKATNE
Chain of cytochrome c (with CL) (P99999 2-105 limits assumed, species assumed): as the sequence (P99999 2-105 limits assumed, species assumed, one chain of several) above
Chain of heme environment of cytochrome c (with CL) (P99999 2-105 limits assumed, species assumed): as the sequence (P99999 2-105 limits assumed, species assumed, one chain of several) above
Chain of cyt c (P99999 2-105 limits assumed, species assumed): as the sequence (P99999 2-105 limits assumed, species assumed, one chain of several) above

Question: D-Arg-2′6′Dmt-Lys-Phe-NH2 [SS-31] was tested. Which “PL intensity of cyt c at 650 nm” value (cyt c) did it give?
Answer: Its value is “increased dose-dependently”.

Question: What about the “O2 consumption in state 3 respiration” value ([1]; glutamate/malate, succinate or TMPD/ascorbate, 400 μM ADP, FIG. 26) of the same substance?
Answer: The value was “increased O2 consumption in state 3 respiration”.

Question: What about the “electron flux, as measured by O2 consumption” value ([1]; peptide 10 μM or 100 μM, complex I, complex II substrate or TMPD/ascorbate, FIG. 26) of the same substance?
Answer: Its value is “can promote electron flux”.

Question: What about the “electron flux, as measured by O2 consumption” value ([1]; peptide 100 μM, 0.5 mM succinate, 400 μM ADP, FIG. 14) of the same substance?
Answer: The value was “can promote electron flux”.

Question: And the “electron transfer to oxygen (rates of respiration)” value ([1]; state 2, state 3 and state 4, different concentrations, FIG. 5)?
Answer: The value was “promoted electron transfer to oxygen without uncoupling mitochondria”.

Question: And the “rate of mitochondrial ATP synthesis” value (isolated mitochondria; ATP by HPLC 1 min after addition of 400 mM ADP, FIG. 6)?
Answer: Its value is “dose-dependently increased the rate of ATP synthesis”.

Question: And the ATP synthesis (isolated mitochondria; assayed by HPLC, FIG. 27)?
Answer: Its ATP synthesis is “dose-dependently increased ATP synthesis”.

Question: And the “rate of ATP production” value (isolated mitochondria; mitochondria energized with low concentrations of succinate, FIG. 15)?
Answer: The value was “significant increase in the rate of ATP production”.

Question: What about the “disappearance of the negative Cotton effect caused by CL (heme environment of cytochrome c)” value [2] of the same substance?
Answer: Its value is “Protect the Heme Environment of Cytochrome C from the Acyl Chain of CL”.

Question: What about the “inhibitory effect of CL on kinetics of cytochrome c reduction” value (cytochrome c (with CL); 500 μM GSH or 50 μM ascorbate, FIG. 25B) of the same substance?
Answer: The value was “dose-dependently overcame the inhibitory effect of CL”.

Question: And the “inhibitory action of CL on rate of cytochrome c reduction” value (cytochrome c (with CL); cytochrome c 20 μM, glutathione 500 μM, CL 100 μg/ml, peptide 20, 40 or 100 μM, FIG. 25A)?
Answer: Its value is “dose-dependently prevented the inhibitory action of CL”.

Question: And the “kinetics of cytochrome c peroxidase activity” value (cytochrome c-CL complex; FIG. 29B)?
Answer: Its value is “dose-dependently reduced the kinetics of cytochrome c peroxidase activity”.

Question: And the “rate of amplex red peroxidation” value (cytochrome c-CL complex; cytochrome c 2 μM, CL 25 μg/ml, 10 μM H2O2, amplex red 50 μM, FIG. 29A)?
Answer: The value was “decreased the rate of amplex red peroxidation”.

Question: And the “peroxidase activity in cytochrome c/CL complex” value (cytochrome c-CL complex; figure legend FIG. 29A-C, comparison at a fixed concentration of 10 μM (FIG. 29C))?
Answer: The value was “preventing peroxidase activity in cytochrome c/CL complex”.
